For assay [1], the target named is T1, STAT6 (Homo sapiens, UniProt P42226).
T1 sequence (P42226 1-847): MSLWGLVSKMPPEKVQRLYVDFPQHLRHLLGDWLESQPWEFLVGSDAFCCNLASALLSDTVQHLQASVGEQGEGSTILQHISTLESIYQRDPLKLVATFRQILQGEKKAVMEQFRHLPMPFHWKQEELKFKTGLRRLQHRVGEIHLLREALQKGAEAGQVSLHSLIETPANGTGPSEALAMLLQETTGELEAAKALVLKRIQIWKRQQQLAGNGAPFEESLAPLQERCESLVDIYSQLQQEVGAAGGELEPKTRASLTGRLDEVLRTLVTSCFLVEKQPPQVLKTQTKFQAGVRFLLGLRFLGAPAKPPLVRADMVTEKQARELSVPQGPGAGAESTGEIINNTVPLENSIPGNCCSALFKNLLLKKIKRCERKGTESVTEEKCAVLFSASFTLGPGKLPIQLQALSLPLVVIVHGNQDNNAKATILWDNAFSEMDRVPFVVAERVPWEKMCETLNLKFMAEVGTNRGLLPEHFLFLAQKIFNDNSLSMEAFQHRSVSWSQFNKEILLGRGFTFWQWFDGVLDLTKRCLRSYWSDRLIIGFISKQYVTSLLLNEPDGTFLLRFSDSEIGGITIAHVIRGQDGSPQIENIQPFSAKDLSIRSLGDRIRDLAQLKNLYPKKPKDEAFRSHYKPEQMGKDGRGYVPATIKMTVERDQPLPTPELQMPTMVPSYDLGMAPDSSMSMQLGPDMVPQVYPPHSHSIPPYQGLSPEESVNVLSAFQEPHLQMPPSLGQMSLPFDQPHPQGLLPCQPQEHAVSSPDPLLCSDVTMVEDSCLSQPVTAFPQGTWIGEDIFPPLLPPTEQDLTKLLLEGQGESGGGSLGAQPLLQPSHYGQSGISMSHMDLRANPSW
The assay is described as follows: STAT6 binding to phosphotyrosine receptor peptides (IC50 / binding affinity).

The target in assay [2] is T1, STAT6. The assay is described as follows: Chemiluminescence binding assay, signal to noise, STAT6. The method, then:
The assays of the invention can be conducted as an ELISA assay, using a 96-well microplate format or a larger format if desired. In one embodiment, a phosphotyrosine-containing receptor peptide is incubated with a protein which contains an SH2 domain (e.g., a STAT polypeptide) to provide opportunity for the SH2 domain containing protein to bind the peptide. The peptide is preferably bound to a tag, e.g., biotin, at the amino terminus of the peptide. There can be a spacer between the tag and the peptide. The solution is placed in wells of a 96-well microplate that are coated with a tag binder, e.g., streptavidin. Reduction of background is achieved by incubating, in a separate reaction, a primary antibody specific for the SH2 domain containing protein and a secondary antibody specific for the first antibody which is to bind to the SH2 domain containing protein. The secondary antibody has conjugated to it a substrate for detection. The antibodies bind and form a binding pair of antibodies Ab1 and Ab2. Ab1 remains available to bind the SH2 domain containing protein for which it is specific. Ab2 remains conjugated to a substrate for chemiluminescence detection later.
The solution containing binding pairs of primary and secondary antibodies bound together is then added to the microwells that already contain the bound streptavidin, biotinylated receptor peptide and an SH2 domain containing protein bound to the receptor peptide. […]
An alternate method for conducting the assay involves preincubating the SH2 domain containing protein with the primary antibody that is specific for the SH2 domain containing protein. […] After allowing time for the SH2-antibody complex to bind the biotinylated peptide bound to streptavidin, a second antibody specific for the first antibody is added, and the presence of the second antibody is detected as before, using a chemiluminescence reaction with either alkaline phosphatase detection or horse radish peroxidase detection. […]

The target in assay [3] is T2, STAT6 (UniProt P42226 1-847, limits assumed).
T2 construct: also called STAT6 polypeptide
T2 sequence (looked up): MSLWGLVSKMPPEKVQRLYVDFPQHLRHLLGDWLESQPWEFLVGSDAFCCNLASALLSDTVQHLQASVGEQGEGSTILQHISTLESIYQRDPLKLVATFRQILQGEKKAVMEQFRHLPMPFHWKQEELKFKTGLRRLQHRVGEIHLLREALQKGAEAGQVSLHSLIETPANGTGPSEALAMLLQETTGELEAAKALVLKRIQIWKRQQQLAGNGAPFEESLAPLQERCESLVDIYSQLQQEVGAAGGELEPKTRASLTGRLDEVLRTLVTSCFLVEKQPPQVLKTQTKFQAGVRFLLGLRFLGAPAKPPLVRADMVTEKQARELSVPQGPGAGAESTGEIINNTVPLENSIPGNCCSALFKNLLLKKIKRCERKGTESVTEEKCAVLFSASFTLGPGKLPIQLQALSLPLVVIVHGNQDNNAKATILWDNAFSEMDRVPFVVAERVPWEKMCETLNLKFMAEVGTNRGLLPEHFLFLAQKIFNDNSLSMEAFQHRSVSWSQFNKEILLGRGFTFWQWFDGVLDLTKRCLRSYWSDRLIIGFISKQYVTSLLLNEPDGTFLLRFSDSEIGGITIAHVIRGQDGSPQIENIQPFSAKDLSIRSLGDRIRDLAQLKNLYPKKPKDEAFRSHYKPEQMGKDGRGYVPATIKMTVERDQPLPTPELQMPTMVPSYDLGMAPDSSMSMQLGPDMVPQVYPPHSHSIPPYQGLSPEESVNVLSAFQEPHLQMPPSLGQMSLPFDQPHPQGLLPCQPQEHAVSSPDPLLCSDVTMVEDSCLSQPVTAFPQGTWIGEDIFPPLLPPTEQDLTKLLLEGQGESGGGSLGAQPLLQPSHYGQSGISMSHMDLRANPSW
Description: binding affinity of the phosphorylated receptor peptide for STAT6; method not stated at the table (paragraph 32 speaks of IC50).

Residues, ends and D or L forms follow the SMILES beside them. A value given as a limit tells only on which side of the number the result lay.

The molecule `CC(=O)N[C@@H](Cc1ccc(OP(=O)(O)O)cc1)C(=O)N[C@@H](CCCCN)C(=O)N1CCC[C@H]1C(=O)N[C@@H](Cc1ccccc1)C(N)=O` [Ac-Y^PKPF-NH2, reference compound] (HELM PEPTIDE1{[ac].[O=C([C@H](Cc1ccc(OP(=O)(O)O)cc1)N[*:1])[*:2]].K.P.F.[am]}$$$$V2.0) had an IC50 in assay [1] of 22000 nM. On to `CC(=O)N[C@@H](Cc1ccc(OP(=O)(O)O)cc1)C(=O)N[C@H](C(=O)N1CCC[C@H]1C(=O)N[C@@H](Cc1c[nH]c2ccccc12)C(N)=O)C(C)C` [Ac-Y^PVPW-NH2] (HELM PEPTIDE1{[ac].[O=C([C@H](Cc1ccc(OP(=O)(O)O)cc1)N[*:1])[*:2]].V.P.W.[am]}$$$$V2.0), for which the IC50 in assay [1] was determined as 1200 nM. Against the preceding molecule, the IC50 is about 18-fold lower.

In assay [1], `CC(=O)N[C@@H](Cc1ccc(OP(=O)(O)O)cc1)C(=O)N[C@H](C(=O)N1CCC[C@H]1C(=O)N[C@@H](Cc1c[nH]c2ccccc12)C(=O)N[C@@H](CCC(N)=O)C(N)=O)C(C)C` [Ac-Y^PVPWQ-NH2] (HELM PEPTIDE1{[ac].[O=C([C@H](Cc1ccc(OP(=O)(O)O)cc1)N[*:1])[*:2]].V.P.W.Q.[am]}$$$$V2.0) displayed an IC50 of 1500 nM. In assay [1], `CC[C@H](C)[C@H](NC(=O)[C@H](CC(C)C)NC(=O)[C@H](CC(=O)O)NC(=O)[C@H](CCC(N)=O)NC(=O)[C@H](Cc1c[nH]c2ccccc12)NC(=O)[C@@H]1CCCN1C(=O)[C@@H](NC(=O)[C@H](Cc1ccc(OP(=O)(O)O)cc1)NC(=O)CNC(=O)[C@@H](N)CCC(=O)O)C(C)C)C(=O)O` [EGY^PVPWQDLI] (HELM PEPTIDE1{E.G.[O=C([C@H](Cc1ccc(OP(=O)(O)O)cc1)N[*:1])[*:2]].V.P.W.Q.D.L.I}$$$$V2.0) had an IC50 of 610 nM. Further, the “signal relative to background, STAT6” value in assay [2] (Ab1/Ab2 preincubation) is reported as “+ + + + +”; in assay [2] (STAT4/Ab preincubation (so in the source)), “+ + + + +”; in assay [2] (Standard assay), “+ +”.

On to `CC(C)C[C@H](NC(=O)[C@@H](NC(=O)[C@H](Cc1c[nH]cn1)NC(=O)[C@@H]1CCCN1C(=O)[C@H](CCCCN)NC(=O)[C@H](CC(=O)O)NC(=O)[C@H](Cc1ccc(OP(=O)(O)O)cc1)NC(=O)CNC(=O)[C@H](Cc1ccccc1)NC(=O)[C@@H](N)CO)C(C)C)C(=O)O` [SFGY*DKPHVL, reference compound] (HELM PEPTIDE1{S.F.G.[O=C([C@H](Cc1ccc(OP(=O)(O)O)cc1)N[*:1])[*:2]].D.K.P.H.V.L}$$$$V2.0), for which the IC50 in assay [1] is greater than 100000 nM.

In assay [3], Ac-Y^PKPF-NH2 (peptide) had a BINDING AFFINITY of 22 µM.

In the case of Ac-Y^PVPW-NH2 (peptide), the BINDING AFFINITY in assay [3] stood at 1.2 µM.

What is called IC50 is the midpoint of a concentration-inhibition curve. A low value points to greater potency in that assay.

(Values after patent US6682898B2, “High-throughput screening assays for modulators of STAT4 activity” (Tularik Inc., priority 1998, dated 2004).)
